In assay [1] the test system is ATXN3 transcripts containing exon 4 (E4E5). Put plainly: ATXN3 quantitative splicing assay (qPCR, SK-N-MC cells). Format: cell-based. The following applies: Homo sapiens, 24 h treatment, qPCR E4E5 primers/probe, read-out: ATXN3 Potency - Splicing E4E5 IC50. In short, it runs like this: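 SK-N-MC cells treated 24 h with compound (30 μM to 0.6 nM, 0.3% DMSO) 24 h after plating; lysates reverse-transcribed and analysed by TaqMan qPCR. E4E5 primers/probe detect exon 4–containing transcripts; E8E9 measures total ATXN3, alongside exon 4–skipped transcript detection.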

A further assay relates to total ATXN3 protein. Put plainly: ATXN3 total protein assay (MSD, SK-N-MC cells). Format: cell-based, Human. The following applies: 48 hours incubation, read-out: ATXN3 Potency - Protein IC50. In short, it runs like this: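 SK-N-MC human neuroblastoma cells treated with compound (30 μM to 0.6 nM) for 48 h, then lysed with protease inhibitors. Total ATXN3 measured by MSD sandwich immunoassay (mouse capture, rabbit detection antibodies, anti-rabbit MSD-ST secondary), quantified against recombinant ATXN3 standards.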

Take `Cc1c(C[C@@H](N)CCO)sc2c(NCc3ccco3)cnnc12` [Compound 29, (3S)-3-amino-4-(4-{[(furan-2-yl)methyl]amino}-7-methylthieno[3,2-c]pyridazin-6-yl)butan-1-ol]: the concentration for half-maximal inhibition (IC50) (in assay [1]; in the assay with total ATXN3 protein) was 0.501 to 5 µM in each case.
On to `Cc1c(C[C@H](C)N)sc2c(NCc3cccs3)c(F)nnc12` [Compound 97, 6-[(2S)-2-aminopropyl]-3-fluoro-7-methyl-N-[(thiophen-2-yl)methyl]thieno[3,2-c]pyridazin-4-amine], for which the IC50 (in assay [1]; in the assay on total ATXN3 protein) was 0.101 to 0.5 µM throughout.
On to `COc1ccsc1CNc1cnnc2c(C)c(C[C@H](C)N)sc12` [Compound 74, 6-[(2S)-2-aminopropyl]-N-[(3-methoxythiophen-2-yl)methyl]-7-methylthieno[3,2-c]pyridazin-4-amine], for which the IC50 (in assay [1]; with total ATXN3 protein) was 10 to 40 µM throughout.
For `Cc1c(C[C@@H](N)CS(C)(=O)=O)sc2c(NCc3cccs3)cnnc12` [Compound 60, 6-[(2R)-2-amino-3-methanesulfonylpropyl]-7-methyl-N-(thiophen-2-ylmethyl)thieno[3,2-c]pyridazin-4-amine], the IC50 (in assay [1]; in the assay on total ATXN3 protein) was 5 to 10 µM in each case.
As to `COc1csc(CNc2cnnc3c(C)c(C[C@H](C)N)sc23)c1` [Compound 75, 6-[(2S)-2-aminopropyl]-N-[(4-methoxythiophen-2-yl)methyl]-7-methylthieno[3,2-c]pyridazin-4-amine], the IC50 (in assay [1]; in the assay with total ATXN3 protein) was 10 to 40 µM each time.
In the case of `Cc1csc2c(NCc3ccco3)cnnc12` [Compound 11, N-[(furan-2-yl)methyl]-7-methylthieno[3,2-c]pyridazin-4-amine], the IC50 (in assay [1]; in the assay with total ATXN3 protein) was 10 to 40 µM each time.
Consider `CSC[C@H](N)Cc1sc2c(NCc3cccs3)cnnc2c1C` [Compound 58, 6-[(2R)-2-amino-3-(methylsulfanyl)propyl]-7-methyl-N-(thiophen-2-ylmethyl)thieno[3,2-c]pyridazin-4-amine], for which the IC50 (in assay [1]; in the assay with total ATXN3 protein) was 0.501 to 5 µM throughout.
Take `Cc1c(C(C)(C)O)sc2c(NCc3cccs3)cnnc12` [Compound 65, 2-{7-methyl-4-[(thiophen-2-ylmethyl)amino]thieno [3,2-c]pyridazin-6-yl}propan-2-ol]: the IC50 (in assay [1]; in the assay with total ATXN3 protein) was 10 to 40 µM throughout.
In the case of `Cc1c(C[C@@H](N)CC#N)sc2c(NCc3cccs3)cnnc12` [Compound 27, (3S)-3-amino-4-(7-methyl-4-{[(thiophen-2-yl)methyl]amino}thieno[3,2-c]pyridazin-6-yl)butanenitrile], the results for the IC50 (in assay [1]; with total ATXN3 protein) were 0.501 to 5 µM and 5 to 10 µM, respectively.
As to `Cc1c(C[C@@H](N)CS(C)(=O)=O)sc2c(NCc3ccco3)cnnc12` [Compound 32, 6-[(2R)-2-amino-3-methanesulfonylpropyl]-N-[(furan-2-yl)methyl]-7-methylthieno[3,2-c]pyridazin-4-amine], the IC50 (in assay [1]; with total ATXN3 protein) was 10 to 40 µM each time.
For the compound `Cc1c(C[C@H](C)N)sc2c(NCc3ccns3)cnnc12` [Compound 18, 6-[(2S)-2-aminopropyl]-7-methyl-N-[(1,2-thiazol-5-yl)methyl]thieno[3,2-c]pyridazin-4-amine], the IC50 (in assay [1]; with total ATXN3 protein) was 10 to 40 µM each time.
For `C#Cc1c(C[C@H](C)N)sc2c(NCc3cccs3)cnnc12` [Compound 116, 6-[(2S)-2-aminopropyl]-7-ethynyl-N-[(thiophen-2-yl)methyl]thieno[3,2-c]pyridazin-4-amine], the IC50 in assay [1] lay in the range of 1e-05 to 0.1 µM; with total ATXN3 protein it was 0.101 to 0.5 µM.
In the case of `Cc1c(C[C@@H](N)CC#N)sc2c(NCc3ccco3)cnnc12` [Compound 38, (3S)-3-amino-4-(4-{[(furan-2-yl)methyl]amino}-7-methylthieno[3,2-c]pyridazin-6-yl)butanenitrile], the IC50 (in assay [1]; with total ATXN3 protein) was 5 to 10 µM each time.
With `Cc1c(C[C@@H](N)CC2CC2)sc2c(NCc3ccco3)cnnc12` [Compound 52, 6-[(2S)-2-amino-3-cyclopropylpropyl]-N-[(furan-2-yl)methyl]-7-methylthieno[3,2-c]pyridazin-4-amine], the IC50 (in assay [1]; with total ATXN3 protein) was 0.501 to 5 µM each time.
On to `C[C@H](N)Cc1sc2c(NCc3cccs3)cnnc2c1O` [Compound 90, 6-[(2S)-2-aminopropyl]-4-[(thiophen-2-ylmethyl)amino]thieno[3,2-c]pyridazin-7-ol], for which the IC50 (in assay [1]; in the assay on total ATXN3 protein) was 10 to 40 µM in each case.
With `Cc1c(C[C@@H]2CCN2)sc2c(NCc3cccs3)cnnc12` [Compound 71, 6-{[(2S)-azetidin-2-y1]methyl}-7-methyl-N-[(thiophen-2-yl)methyl]thieno[3,2-c]pyridazin-4-amine], the IC50 (in assay [1]; in the assay on total ATXN3 protein) was 10 to 40 µM each time.
As to `C=C(C)Cc1sc2c(NCc3ccco3)cnnc2c1C` [Compound 34, N-[(furan-2-yl)methyl]-7-methyl-6-(2-methylprop-2-en-1-yl)thieno[3,2-c]pyridazin-4-amine], the IC50 (in assay [1]; with total ATXN3 protein) was 10 to 40 µM in each case.
`COc1c(C[C@H](C)N)sc2c(NCc3cccs3)cnnc12` [Compound 22, (S)-6-(2-aminopropyl)-7-methoxy-N-(thiophen-2-ylmethyl)thieno[3,2-c]pyridazin-4-amine]: the IC50 (in assay [1]; in the assay with total ATXN3 protein) was 0.501 to 5 µM in each case.

The values are drawn from US20250101034A1, “COMPOSITIONS USEFUL FOR MODULATING SPLICING” (SKYHAWK THERAPEUTICS, INC., priority 2021, published 2025).
